According to PMC10535880, “Caco-2 Cell Sheet Partially Laminated with HT29-MTX Cells as a Novel In Vitro Model of Gut Epithelium Drug Permeability” (Pharmaceutics, 2023):
Read-outs that look alike come from different tables or passages of the source.

Columns and labels:
HT29-MTX-E12 cells = test system: HT29-MTX-E12 cells; set-up: method as in PMID 23869232; conditions: added during the first six days of semi-wet interface with mechanical stimulation; 28 days of incubation; without addition 3–5 μm; cited from earlier work
[1] = test system: Caco-2/HT29-MTX partially laminated model
Procedure: In the short-term culture model, Caco-2 monolayers were prepared according to the protocol of the Corning® BioCoat^TM Intestinal Epithelial Cell Environment Kit (Corning Inc., Corning, NY, USA) with slight modifications with reference to the procedure reported by Yamashita et al. [20]. Briefly, Caco-2 cells were seeded at a density of 1 × 10^5 cells/insert onto 24-well Transwell® inserts (0.4 μm pore size, Corning Inc.) using a basal seeding medium. After 24 h of incubation (37 °C, 5% CO2), the basal seeding medium was replaced with the enterocyte differential medium. After an additional 72 h of incubation, a cell monolayer was formed, and the integrity was evaluated via TEER using an epithelial volt-ohmmeter (EVOM2, World Precision Instruments Inc., Sarasota, FL, USA). In the long-term culture model, Caco-2 cells were seeded at a density of 1 × 10^4 cells/insert onto 24-well Transwell® inserts using DMEM containing 10% FBS, 1% nonessential amino acids, and 1% penicillin-streptomycin for 21 days.
(§1) When preparing the partially laminated model, a Caco-2 monolayer with a TEER value ≥ 2000 Ω·cm^2 was formed first, and HT29-MTX cells were then laminated onto the Caco-2 monolayer at ratios of 1:9, 3:7, and 5:5, followed by incubation for the predetermined time. As for the coculture model, Caco-2 and HT29-MTX cells were seeded simultaneously in the different ratios and incubated for the predetermined time to form a hybrid monolayer.
(§2) Briefly, the culture medium on both sides of the Transwell® insert was replaced with HBSS and washed twice with prewarmed HBSS. […] The Papp coefficients of the model drugs were calculated using the following equation [19, 21]:(1) Papp=dQ/dt×1/A.C0 where dQ/dt is the velocity of solutes transported across the culture cell sheet in time, C0 is the concentration of the solute in the apical compartment at time zero, and A is the cross-sectional area of the cell sheet in contact with the apical solution.
The supernatant was collected as a sample for LC-MS/MS. […]

[2] = test system: Caco-2/HT29-MTX coculture model
Procedure: as §1, §2

Compound | mucus layer thickness (HT29-MTX-E12 cells) | Papp compared to that in the Caco-2 monolayer ([1]; 5:5 ratio of Caco-2/HT29-MTX) [times] | Papp compared to that in the Caco-2 monolayer ([1]; 7:3 ratio of Caco-2/HT29-MTX) [times] | Papp compared to that in the Caco-2 monolayer ([1]; 9:1 ratio of Caco-2/HT29-MTX) | Papp compared to that in the Caco-2 monolayer model [2] | Papp compared to that of the HT29-MTX monolayer ([2]; independent of the Caco-2:HT29-MTX ratio)
C[C@H](NC(=O)Cc1cc(F)cc(F)c1)C(=O)NC(C(=O)OC(C)(C)C)c1ccccc1 (stereo partly drawn) [N-[(3,5-difluorophenyl)acetyl]-L-alanyl-2-phenyl]glycine-1,1-dimethylethyl ester] | 25–30 μm |  |  |  |  | 
Lucifer yellow |  | 1.5 | 1.5 | similar | significantly higher | similar
